Measured values taken from patent US11033559B2, “Leukocyte infiltration promoting agent and antitumor immunostimulatory agent” (OSAKA UNIVERSITY, priority 2015, dated 2021).

Legend:
Assay type in all cases: in vivo
[1] = tested on: tumor blood vessels in Lewis lung cancer (LLC) tumor-bearing mice; assay: Structural changes in tumor blood vessels (anti-CD31 immunostaining) after administration of LPA or LPA derivative; conditions: 3 mg/kg intraperitoneally once daily for five days, tumors harvested at 6 days, anti-CD31 staining
Procedure: LPA or an LPA derivative was administered to tumor-bearing mice generated by subcutaneous inoculation of a mouse cancer cell line, and post-administration structural changes in tumor blood vessels were examined.
Lewis lung cancer cells (hereinafter called LLC cells) were used as the mouse cancer cell line. LLC cells (1×10^6 cells in 100 μL PBS per animal) were subcutaneously injected into C57BL/6 NCrSlc mice aged 8 weeks (females, SLC, Inc.).
The LPA used was 18:1 LPA (Avanti Polar Lipids, Inc.). The LPA derivative used was VPC31144S (N-{(1S)-2-hydroxy-1-[(phosphonooxy)methyl]ethyl} (9Z) octade c-9-enamide). A 10 mM LPA stock solution and a 10 mM VPC31144S stock solution were separately prepared using 50% ethanol and stored at −30° C. Before use, each of the frozen stock solutions was thawed and homogenized with an ultrasonic cleaner (SND Co., Ltd.) for 1 minute. The solution was diluted in PBS to an appropriate concentration for administration at a dose of 3 mg/kg in 100 μL PBS.
On day 9 post-inoculation, LLC-bearing mice that had developed a tumor with a volume of 60 to 80 mm^3 (volume=length×width×height×0.5) were selected and subjected to the experiment. The mice were assigned to three groups: a control group, an LPA group and a VPC31144S group. Each group consisted of three mice. […]

[2] = tested on: luminal surface of tumor blood vessels in LLC tumor-bearing mice; assay: Structural changes in lumina of tumor blood vessels (scanning electron microscopy); conditions: 3 mg/kg intraperitoneally, 24 hours after administration, scanning electron microscope
Procedure: LLC cells were subcutaneously inoculated into C57BL/6 NCrSlc mice aged 8 weeks (females, SLC, Inc.) in the same manner as in Reference Example 1. An LPA solution for administration was prepared in the same manner as in Reference Example 1. LLC-bearing mice on day 9 post-inoculation (animals with a tumor volume of 60 to 80 mm^3) were subjected to the experiment. The mice were divided into two groups: a control group and an LPA group (n=3 per group). After grouping, LPA (3 mg/kg/100 μL) or PBS (100 μL) was intraperitoneally administered to the mice. At 24 hours after LPA or PBS administration, the mice were fixed by perfusion with a fixative under anesthesia with pentobarbital (Kyoritsu Seiyaku Corporation). The fixative used was 0.1 M phosphate buffer (pH 7.4) containing 2% formaldehyde and 2.5% glutaraldehyde. After the fixation by perfusion, the tumors were harvested, immersed in the same fixative as used for perfusion, and shaken at 4° C. overnight. The tumors were further immersed in 0.1 M phosphate buffer (pH 7.4) containing 1% osmium tetroxide and 0.5% potassium ferrocyanide for fixation. The tumors were dehydrated in an ascending series of ethanol, then the alcohol was replaced with t-butyl alcohol, and the tumors were freeze-dried.

[3] = tested on: B16-BL6 mouse melanoma cell line; assay: Tumor growth inhibition, subcutaneous tumor formed from melanoma cells; conditions: B16-BL6-bearing mice; LPA 3 mg/kg i.p. once daily for seven days; 5-FU 100 mg/kg i.p. once weekly, 2 times
Procedure: LLC cells (1×10^6 cells in 100 μL PBS per animal) were subcutaneously injected into C57BL/6 NCrSlc mice aged 8 weeks (females) in the same manner as in Reference Example 1. An LPA solution for administration was prepared in the same manner as in Reference Example 1. 5-FU (Kyowa Hakko Kirin Co., Ltd.) was used as an anticancer drug. 5-FU was prepared as a solution in physiological saline (Otsuka Pharmaceutical Co., Ltd.). On day 7 post-inoculation, LLC-bearing mice that had developed a tumor with a volume of 30 to 50 mm^3 were selected and subjected to the experiment. The mice were assigned to three groups: a control group, a 5-FU group and an LPA group (n=3 per group). After grouping, LPA (3 mg/kg/100 μL), 5-FU (100 mg/kg/100 μL) or PBS (100 μL) was intraperitoneally administered to the mice. The administration of LPA or PBS was performed once daily for consecutive seven days. The administration of 5-FU was performed once weekly, 2 times in total (day 7 and day 14 post-inoculation). Tumor size was measured over time after the start of the administration. Tumor volume was calculated by the following formula: length×width×height×0.5.
The B16-BL6 mouse melanoma cell line was used. B16-BL6 cells (1×10^6 cells in […] PBS per animal) were subcutaneously injected into C57BL/6 NCrSlc mice aged 8 weeks (females). […]

lysophosphatidic acid [LPA]
network structure of tumor blood vessels [1]: continuous network structure of blood vessels
luminal surface of tumor blood vessels [2]: very smooth luminal surface
inhibitory effect on growth of the tumor formed from melanoma cells [3]: comparable to that of 5-FU
